Test results: ChEMBL document CHEMBL2375342, “Novel 5-(benzyloxy)pyridin-2(1H)-one derivatives as potent c-Met inhibitors” (Bioorg Med Chem Lett, 2013)
Values belong to the compound of their own block, whether it stands above or below them. Calls of active or inactive are those of the source. The calls are words filed in the database; no cut-off is given here.

Columns and labels:
[1] = target: T1, Hepatocyte growth factor receptor (Homo sapiens, UniProt P08581); assay: Inhibition of c-MET (unknown origin) at 1 uM after 60 mins by ELISA
[2] = target: Macrophage-stimulating protein receptor (Homo sapiens, UniProt Q04912); assay: Inhibition of RON (unknown origin)
[3] = target: Receptor tyrosine-protein kinase erbB-4 (Homo sapiens, UniProt Q15303); assay: Inhibition of ERBB4 (unknown origin)
[4] = Antiproliferative activity in human EBC1 cells overexpressing c-MET after 72 hrs by sulforhodamine B assay; type: functional, cell-based; details: EBC-1, 72 h
[5] = target: Proto-oncogene tyrosine-protein kinase receptor Ret (Homo sapiens, UniProt P07949); assay: Inhibition of RET (unknown origin)
[6] = target: Receptor tyrosine-protein kinase erbB-2 (Homo sapiens, UniProt P04626); assay: Inhibition of ERBB2 (unknown origin)
[7] = target: Epidermal growth factor receptor (Homo sapiens, UniProt P00533); assay: Inhibition of EGFR (unknown origin)
[8] = target: Fibroblast growth factor receptor 1 (Homo sapiens, UniProt P11362); assay: Inhibition of FGFR1 (unknown origin)
[9] = target: Platelet-derived growth factor receptor alpha (Homo sapiens, UniProt P16234); assay: Inhibition of PDGFRalpha (unknown origin)
[10] = target: T2, Tyrosine-protein kinase receptor TYRO3 (Homo sapiens, UniProt Q06418); assay: Inhibition of TYRO3 (unknown origin)
T2 sequence (Q06418 whole entry): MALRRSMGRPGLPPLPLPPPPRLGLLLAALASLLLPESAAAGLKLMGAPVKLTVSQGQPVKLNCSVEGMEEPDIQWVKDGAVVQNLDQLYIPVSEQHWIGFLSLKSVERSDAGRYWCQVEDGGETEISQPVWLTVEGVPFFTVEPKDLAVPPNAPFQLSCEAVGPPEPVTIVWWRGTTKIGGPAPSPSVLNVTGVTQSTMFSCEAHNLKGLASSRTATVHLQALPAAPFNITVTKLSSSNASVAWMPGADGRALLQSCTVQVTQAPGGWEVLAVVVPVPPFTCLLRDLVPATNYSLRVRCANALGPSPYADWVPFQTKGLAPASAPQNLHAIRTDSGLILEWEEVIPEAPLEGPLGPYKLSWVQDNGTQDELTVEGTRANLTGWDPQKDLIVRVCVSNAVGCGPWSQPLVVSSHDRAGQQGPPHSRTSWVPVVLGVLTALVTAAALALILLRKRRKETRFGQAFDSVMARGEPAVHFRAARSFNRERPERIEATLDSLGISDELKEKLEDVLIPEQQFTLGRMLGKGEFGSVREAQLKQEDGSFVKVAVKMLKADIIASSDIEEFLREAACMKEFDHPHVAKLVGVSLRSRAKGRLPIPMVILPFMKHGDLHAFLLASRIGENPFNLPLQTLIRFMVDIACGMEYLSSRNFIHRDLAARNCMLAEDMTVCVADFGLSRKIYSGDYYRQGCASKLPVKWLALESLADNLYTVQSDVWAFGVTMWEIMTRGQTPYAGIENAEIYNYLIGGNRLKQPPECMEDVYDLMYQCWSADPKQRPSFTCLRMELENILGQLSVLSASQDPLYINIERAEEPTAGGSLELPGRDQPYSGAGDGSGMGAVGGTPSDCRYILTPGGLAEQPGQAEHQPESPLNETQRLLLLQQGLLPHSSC

[11] = target: Vascular endothelial growth factor receptor 2 (Homo sapiens, UniProt P35968); assay: Inhibition of KDR (unknown origin)
[12] = target: Tyrosine-protein kinase ABL1 (Homo sapiens, UniProt P00519); assay: Inhibition of ABL (unknown origin)
[13] = target: Epidermal growth factor receptor (Homo sapiens, UniProt P00533, L858R/T790M); assay: Inhibition of EGFR T790M/L858R double mutant (unknown origin); type: protein assay
[14] = target: Vascular endothelial growth factor receptor 1 (Homo sapiens, UniProt P17948); assay: Inhibition of FLT1 (unknown origin)
[15] = target: T1, Hepatocyte growth factor receptor; assay: Inhibition of c-MET (unknown origin) after 60 mins by ELISA
[16] = target: T1, Hepatocyte growth factor receptor; assay: Inhibition of c-MET (unknown origin)
[17] = target: T1, Hepatocyte growth factor receptor; assay: Inhibition of c-MET (unknown origin) at 10 uM after 60 mins by ELISA relative to control

T1 sequence (P08581 whole entry): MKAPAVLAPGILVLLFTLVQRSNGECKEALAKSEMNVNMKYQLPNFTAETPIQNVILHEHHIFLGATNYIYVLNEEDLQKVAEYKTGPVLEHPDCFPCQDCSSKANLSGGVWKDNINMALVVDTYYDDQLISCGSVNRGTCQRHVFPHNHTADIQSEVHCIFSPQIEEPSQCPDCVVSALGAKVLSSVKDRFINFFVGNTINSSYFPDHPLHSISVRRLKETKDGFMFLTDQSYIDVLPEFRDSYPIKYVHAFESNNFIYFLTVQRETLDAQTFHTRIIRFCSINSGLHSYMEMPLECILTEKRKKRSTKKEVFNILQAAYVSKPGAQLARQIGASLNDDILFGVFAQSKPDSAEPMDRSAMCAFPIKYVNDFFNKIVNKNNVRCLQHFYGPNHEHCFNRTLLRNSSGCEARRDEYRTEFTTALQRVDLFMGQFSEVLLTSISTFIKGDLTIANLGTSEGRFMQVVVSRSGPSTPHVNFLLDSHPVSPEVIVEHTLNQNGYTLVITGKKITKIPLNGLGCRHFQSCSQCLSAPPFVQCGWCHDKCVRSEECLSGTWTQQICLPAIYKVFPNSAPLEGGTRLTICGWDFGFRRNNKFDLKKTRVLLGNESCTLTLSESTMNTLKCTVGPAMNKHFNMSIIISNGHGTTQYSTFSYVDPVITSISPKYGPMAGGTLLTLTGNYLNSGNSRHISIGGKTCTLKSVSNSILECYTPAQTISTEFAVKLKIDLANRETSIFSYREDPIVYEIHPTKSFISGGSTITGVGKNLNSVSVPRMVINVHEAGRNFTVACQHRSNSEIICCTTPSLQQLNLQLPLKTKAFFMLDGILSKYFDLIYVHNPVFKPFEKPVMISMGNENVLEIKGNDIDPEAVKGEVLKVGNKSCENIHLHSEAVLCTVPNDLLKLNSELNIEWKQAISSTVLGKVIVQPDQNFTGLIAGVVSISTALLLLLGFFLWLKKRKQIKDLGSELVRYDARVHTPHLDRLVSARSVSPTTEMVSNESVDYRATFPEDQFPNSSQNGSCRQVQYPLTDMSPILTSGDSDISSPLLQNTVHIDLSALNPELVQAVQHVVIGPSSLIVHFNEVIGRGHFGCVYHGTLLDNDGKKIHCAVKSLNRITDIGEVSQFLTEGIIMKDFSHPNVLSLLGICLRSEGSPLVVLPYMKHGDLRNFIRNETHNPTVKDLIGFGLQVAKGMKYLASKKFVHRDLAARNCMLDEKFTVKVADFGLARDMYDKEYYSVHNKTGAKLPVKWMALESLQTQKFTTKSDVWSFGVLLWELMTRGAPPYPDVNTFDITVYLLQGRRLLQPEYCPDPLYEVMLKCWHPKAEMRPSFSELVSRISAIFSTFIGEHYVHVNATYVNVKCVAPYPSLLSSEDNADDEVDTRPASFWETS
Tyrosine-protein kinase ABL1, sequence (P00519 whole entry): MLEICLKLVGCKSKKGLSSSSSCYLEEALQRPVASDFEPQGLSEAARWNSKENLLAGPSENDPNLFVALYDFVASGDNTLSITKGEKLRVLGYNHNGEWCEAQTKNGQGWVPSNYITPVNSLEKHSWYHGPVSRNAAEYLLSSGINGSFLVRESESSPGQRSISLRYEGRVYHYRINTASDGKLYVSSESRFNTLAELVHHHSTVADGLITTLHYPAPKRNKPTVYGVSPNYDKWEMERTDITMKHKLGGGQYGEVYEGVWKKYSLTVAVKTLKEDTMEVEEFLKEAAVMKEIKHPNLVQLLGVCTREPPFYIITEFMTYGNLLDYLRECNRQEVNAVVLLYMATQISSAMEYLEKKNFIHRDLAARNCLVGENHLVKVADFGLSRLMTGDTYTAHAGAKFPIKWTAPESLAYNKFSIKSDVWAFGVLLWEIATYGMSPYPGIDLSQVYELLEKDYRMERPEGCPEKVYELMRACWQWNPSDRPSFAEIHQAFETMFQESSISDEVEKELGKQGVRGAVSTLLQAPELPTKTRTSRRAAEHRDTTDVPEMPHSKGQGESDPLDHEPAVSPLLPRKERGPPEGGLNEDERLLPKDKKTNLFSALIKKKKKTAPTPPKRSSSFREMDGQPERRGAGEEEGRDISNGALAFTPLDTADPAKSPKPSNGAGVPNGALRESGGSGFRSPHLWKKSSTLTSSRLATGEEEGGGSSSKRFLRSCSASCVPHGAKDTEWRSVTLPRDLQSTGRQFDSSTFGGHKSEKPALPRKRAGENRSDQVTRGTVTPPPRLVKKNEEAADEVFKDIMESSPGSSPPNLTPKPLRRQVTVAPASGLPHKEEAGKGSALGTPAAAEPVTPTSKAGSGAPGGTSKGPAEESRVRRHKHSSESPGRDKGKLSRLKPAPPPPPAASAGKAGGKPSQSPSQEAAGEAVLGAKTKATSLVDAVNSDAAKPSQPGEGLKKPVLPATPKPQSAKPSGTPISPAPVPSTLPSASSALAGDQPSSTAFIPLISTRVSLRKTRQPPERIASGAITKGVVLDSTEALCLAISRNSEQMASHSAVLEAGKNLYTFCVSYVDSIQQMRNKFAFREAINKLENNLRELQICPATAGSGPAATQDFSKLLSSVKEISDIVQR
Platelet-derived growth factor receptor alpha, sequence (P16234 whole entry): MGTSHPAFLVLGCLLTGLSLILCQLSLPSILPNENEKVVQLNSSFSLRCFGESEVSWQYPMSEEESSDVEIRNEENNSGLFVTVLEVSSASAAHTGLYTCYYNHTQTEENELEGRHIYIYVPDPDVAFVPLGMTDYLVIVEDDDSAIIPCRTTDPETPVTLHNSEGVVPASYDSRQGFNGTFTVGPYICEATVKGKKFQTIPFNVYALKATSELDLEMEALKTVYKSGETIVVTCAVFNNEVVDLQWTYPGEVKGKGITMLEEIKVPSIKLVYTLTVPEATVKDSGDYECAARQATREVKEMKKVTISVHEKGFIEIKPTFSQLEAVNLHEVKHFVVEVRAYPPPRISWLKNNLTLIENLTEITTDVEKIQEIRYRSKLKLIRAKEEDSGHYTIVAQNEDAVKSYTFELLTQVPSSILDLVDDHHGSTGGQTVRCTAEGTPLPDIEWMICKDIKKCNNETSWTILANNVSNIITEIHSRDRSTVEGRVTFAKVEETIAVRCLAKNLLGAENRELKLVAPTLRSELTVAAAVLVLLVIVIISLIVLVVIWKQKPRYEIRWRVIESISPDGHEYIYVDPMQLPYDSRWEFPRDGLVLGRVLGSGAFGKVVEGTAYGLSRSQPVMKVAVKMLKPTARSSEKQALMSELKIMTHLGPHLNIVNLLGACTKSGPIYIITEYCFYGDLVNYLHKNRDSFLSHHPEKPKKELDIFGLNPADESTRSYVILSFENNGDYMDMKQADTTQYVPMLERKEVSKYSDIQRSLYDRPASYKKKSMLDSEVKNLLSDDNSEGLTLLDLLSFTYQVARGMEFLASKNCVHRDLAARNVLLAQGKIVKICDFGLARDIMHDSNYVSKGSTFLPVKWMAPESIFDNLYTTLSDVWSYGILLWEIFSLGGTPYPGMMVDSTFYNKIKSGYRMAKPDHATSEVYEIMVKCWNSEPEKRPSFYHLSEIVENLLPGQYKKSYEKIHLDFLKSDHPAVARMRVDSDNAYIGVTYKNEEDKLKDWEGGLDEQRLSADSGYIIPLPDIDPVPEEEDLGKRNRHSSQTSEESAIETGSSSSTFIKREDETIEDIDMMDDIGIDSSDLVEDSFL
Receptor tyrosine-protein kinase erbB-2, sequence (P04626 whole entry): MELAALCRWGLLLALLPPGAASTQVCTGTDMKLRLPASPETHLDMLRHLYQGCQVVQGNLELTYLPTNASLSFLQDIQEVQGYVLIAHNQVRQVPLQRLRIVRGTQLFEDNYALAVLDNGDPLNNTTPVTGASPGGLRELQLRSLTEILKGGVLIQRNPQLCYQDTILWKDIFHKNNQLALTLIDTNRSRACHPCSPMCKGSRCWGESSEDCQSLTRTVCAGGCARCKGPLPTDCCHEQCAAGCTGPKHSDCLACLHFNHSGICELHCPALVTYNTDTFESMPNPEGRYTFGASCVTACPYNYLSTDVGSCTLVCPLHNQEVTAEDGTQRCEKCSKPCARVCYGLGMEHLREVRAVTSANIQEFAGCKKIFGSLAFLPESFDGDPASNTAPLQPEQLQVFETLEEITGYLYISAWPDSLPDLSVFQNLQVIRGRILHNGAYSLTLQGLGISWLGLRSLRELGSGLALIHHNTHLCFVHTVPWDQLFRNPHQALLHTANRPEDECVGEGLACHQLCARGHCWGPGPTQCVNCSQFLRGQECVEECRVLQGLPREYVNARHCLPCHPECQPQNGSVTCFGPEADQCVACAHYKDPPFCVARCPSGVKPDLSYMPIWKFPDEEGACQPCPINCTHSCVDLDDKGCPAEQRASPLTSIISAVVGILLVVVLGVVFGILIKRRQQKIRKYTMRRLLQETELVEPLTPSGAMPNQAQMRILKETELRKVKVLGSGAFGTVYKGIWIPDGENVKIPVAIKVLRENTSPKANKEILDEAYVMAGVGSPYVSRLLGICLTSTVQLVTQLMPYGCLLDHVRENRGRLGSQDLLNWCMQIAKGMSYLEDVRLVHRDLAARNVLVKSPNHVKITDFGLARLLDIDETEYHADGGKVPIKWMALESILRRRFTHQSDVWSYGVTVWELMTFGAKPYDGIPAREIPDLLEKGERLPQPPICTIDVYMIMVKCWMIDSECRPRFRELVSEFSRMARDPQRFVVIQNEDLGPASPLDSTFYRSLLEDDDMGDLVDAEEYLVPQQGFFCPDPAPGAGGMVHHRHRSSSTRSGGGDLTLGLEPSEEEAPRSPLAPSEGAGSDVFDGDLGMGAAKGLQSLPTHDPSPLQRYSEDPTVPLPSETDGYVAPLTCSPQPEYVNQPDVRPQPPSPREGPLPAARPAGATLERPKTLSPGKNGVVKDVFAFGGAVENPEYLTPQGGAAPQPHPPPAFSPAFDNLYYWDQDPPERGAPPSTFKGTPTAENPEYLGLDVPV

- inhibition [1]: inactive
Compound: COc1ncc(O[C@H](C)c2c(Cl)ccc(F)c2Cl)cc1C(=O)Nc1ccc(N2CCN(C)CC2)cc1

- IC50 [2]: 446 nM
- IC50 [3]: > 1000 nM
- IC50 [5]: > 1000 nM
- IC50 [6]: > 1000 nM
- IC50 [7]: > 1000 nM
- IC50 [8]: > 1000 nM
- IC50 [9]: > 1000 nM
- IC50 [10]: > 1000 nM
- IC50 [11]: > 1000 nM
- IC50 [12]: 281 nM
- IC50 [13]: > 1000 nM
- IC50 [14]: > 1000 nM
- IC50 [15]: 12 nM
Compound: C[C@@H](Oc1c[nH]c(=O)c(C(=O)Nc2ccc(N3CCN(C)CC3)cc2)c1)c1c(Cl)ccc(F)c1Cl
- IC50 [4]: 2200 nM

- IC50 [16]: 0.69 nM
Compound: C[C@@H](Oc1cc(C(=O)Nc2ccc(C(=O)N3CCN(C)CC3)cc2)nnc1N)c1c(Cl)ccc(F)c1Cl

- inhibition [17]: < 50%
Compound: C[C@@H](Oc1c[nH]c(=O)c(C(=O)NC2CCN(C)CC2)c1)c1c(Cl)ccc(F)c1Cl

Compound: C[C@@H](Oc1c[nH]c(=O)c(C(=O)Nc2cnn(C)c2)c1)c1c(Cl)ccc(F)c1Cl
- IC50 [4]: 9800 nM

- inhibition [1]: inactive
Compound: CCN1CCN(c2ccc(NC(=O)c3cc(O[C@H](C)c4c(Cl)ccc(F)c4Cl)c[nH]c3=O)c(OC)c2)CC1

Compound: C[C@@H](Oc1c[nH]c(=O)c(C(=O)Nc2ccc(CN3CCN(C)CC3)cc2)c1)c1c(Cl)ccc(F)c1Cl
- IC50 [4]: 1100 nM

Compound: C[C@@H](Oc1c[nH]c(=O)c(C(=O)Nc2cnn(CCO)c2)c1)c1c(Cl)ccc(F)c1Cl
- IC50 [4]: 1100 nM

Compound: C[C@@H](Oc1c[nH]c(=O)c(C(=O)Nc2ccc(N3CCN(C)CC3)nc2)c1)c1c(Cl)ccc(F)c1Cl
- IC50 [4]: 3900 nM

Compound: C[C@@H](Oc1c[nH]c(=O)c(C(=O)Nc2cnn(C3CCNCC3)c2)c1)c1c(Cl)ccc(F)c1Cl
- IC50 [4]: 1000 nM

- inhibition [17]: < 50%
Compound: C[C@@H](Oc1c[nH]c(=O)c(C(=O)NCc2ccc(N3CCOCC3)cc2)c1)c1c(Cl)ccc(F)c1Cl

- inhibition [17]: < 50%
Compound: C[C@@H](Oc1c[nH]c(=O)c(C(=O)NCc2ccc(NS(C)(=O)=O)cc2)c1)c1c(Cl)ccc(F)c1Cl

Compound: C[C@@H](Oc1c[nH]c(=O)c(C(=O)Nc2ccc3c(c2)CN(CCN(C)C)C3=O)c1)c1c(Cl)ccc(F)c1Cl
- IC50 [4]: 2600 nM

Compound: C[C@@H](Oc1c[nH]c(=O)c(C(=O)Nc2ccc(OCCN3CCOCC3)cc2)c1)c1c(Cl)ccc(F)c1Cl
- IC50 [4]: 5900 nM
